What all share (experiment): NCI-60 cell line screen, 48 h
The test system of assay [1] is SF-268 CNS.
The test system of assay [2] is A498 renal.
Assay [3] deals with MCF7 breast.
The test system of assay [4] is COLO 205 colon.
Assay [5] relates to HS 578T breast.
For assay [6], the system named is LOX IMVI melanoma.
Assay [7] relates to SR leukemia.
The subject of assay [8] is MDA-MB-435.
Assay [9] relates to MDA-N.
Assay [10] deals with 786-0 renal.
Assay [11] concerns EKVX NSCLC.

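Interpolation was linear, between the two tested concentrations surrounding the appropriate level; five concentrations were tested over 48 hours in 96-well plates. TGI: concentration producing complete growth inhibition.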

With `O=C1CC(Sc2nc3ccc(I)cc3c(=O)n2Cc2ccccc2)C(=O)NN1` (stereo not drawn), the TGI worked out at 30.1 µM in assay [1]; 29.7 µM in assay [2]; 28.2 µM in assay [3]; 34.5 µM in [4]; 42.4 µM in assay [5]; 11.2 µM in assay [6]. Moreover, the TGI in assay [7] turned out to be 24 µM; in assay [8], 33.9 µM; in [9], 33.4 µM; in [10], 28.4 µM; in assay [11] it was 31.8 µM.

Consider `Cn1ccnc1Sc1ccc(C=Nc2ccc3nc(SCC(=O)NC4CCCCC4)sc3c2)cc1[N+](=O)[O-]`, for which the TGI in [1] is greater than 100 µM; in assay [2], 48.2 µM; in [3], greater than 100 µM; in assay [4], greater than 100 µM; in assay [5] it was 96.3 µM; in [6] it was greater than 100 µM. Further, the TGI in assay [7] was greater than 100 µM; in assay [8], greater than 100 µM; in assay [9], greater than 100 µM; in assay [10] it was 49 µM; in assay [11], greater than 100 µM.

As to `COC(=O)c1cc(C)ccc1CC(Cc1ccc(C)cc1)C(=O)OC` (stereo not drawn), the TGI is greater than 35.3 µM in assay [1]; greater than 100 µM in assay [2]; greater than 31.6 µM in assay [3]; greater than 100 µM in [4]; greater than 100 µM in [5]; greater than 100 µM in assay [6]. Further, the TGI in assay [7], in assay [8], in assay [9], in assay [10] and in [11] was greater than 100 µM throughout.

Regarding `CCCOC(=O)NC(C)C(=O)NC(CCC(=O)NC(CCCC(N)C(=O)O)C(=O)NC(C)C(=O)O)C(=O)O` (stereo not drawn), the TGI in assay [1] is 42.3 µM; in assay [2], greater than 100 µM; in [3], greater than 100 µM; in assay [4] it was 48.7 µM; in assay [5], 40.5 µM; in assay [6], 30.1 µM. The TGI is 32.4 µM in assay [7]; greater than 100 µM in assay [8]; 44.6 µM in assay [9]; greater than 100 µM in assay [10]; greater than 100 µM in [11].

As for `c1ccc(C2=Nn3c(CCCCCCCCc4nnc5n4N=C(c4ccccc4)CS5)nnc3SC2)cc1`, the TGI in [1] was greater than 81.8 µM; in assay [2] it was greater than 96.1 µM; in assay [3], greater than 100 µM; in [4], greater than 100 µM; in [5], greater than 100 µM; in assay [6], greater than 100 µM. The TGI is greater than 100 µM in assay [7]; greater than 100 µM in assay [8]; greater than 100 µM in [9]; 33.2 µM in assay [10]; greater than 100 µM in assay [11].

With `O=C(O)c1ccc2c(c1)CC1(C2)Cc2cc3c(cc2C1=O)CCC3` (stereo not drawn), the TGI in [1], in assay [2], in assay [3], in assay [4], in assay [5] and in [6] was greater than 100 µM each time. The TGI in assay [7], in assay [8], in [9], in assay [10] and in [11] was greater than 100 µM in each case.

Regarding `COc1ccc(N=Nc2c3c(c(O)c4ccccc24)CCC(C)(C)O3)cc1`, the TGI was determined as 31.5 µM in assay [1]; 32 µM in assay [2]; 29.5 µM in assay [3]; 72.8 µM in assay [4]; 66.7 µM in assay [5]; 29.9 µM in [6]. The TGI in [7] stood at 39.1 µM; in assay [8], 32.4 µM; in [9] it was 30.6 µM; in assay [10], 73.8 µM; in [11] it was 54.1 µM.

In the case of `Cc1cc2c(nn1)-c1ccccc1C2=O`, the TGI in assay [1], in [2], in assay [3], in assay [4], in [5] and in [6] was greater than 10 µM each time. The TGI in assay [7], in assay [8], in assay [9], in [10] and in assay [11] was greater than 10 µM in each case.

The values are drawn from PubChem BioAssay (NCI).
